What was measured:
[1] = tested on: proteins of Cyt (cytosolic fraction of liver homogenate); assay: Covalent adduct formation of NSAIDs-AG with proteins of cytosolic fraction (Cyt); format: binding, rat; conditions: 180 μM, 6 h; for covalent adduct formation with Cyt proteins: protein 1 mg/mL, 37 °C
[2] = tested on: proteins of Mit (mitochondrial fraction of liver homogenate); assay: Covalent adduct formation of NSAIDs-AG with proteins of mitochondrial fraction (Mit); format: binding, rat; conditions: 180 μM, 6 h; for covalent adduct formation with Mit proteins: protein 1 mg/mL, 37 °C
[3] = tested on: proteins of Nuc (nuclear fraction of liver homogenate); assay: Covalent adduct formation of NSAIDs-AG with proteins of nuclear fraction (Nuc); format: binding, rat; conditions: 180 μM, 6 h; for covalent adduct formation with Nuc proteins: protein 1 mg/mL, 37 °C
UGT1A9 = target: T1, UGT1A9 (Homo sapiens, UniProt O60656); assay: Covalent adduct formation of NSAIDs-AG with UGT1A9; format: binding; conditions: 180 μM, UGT 3.4 μM, 6 h
T1 construct: purchased Corning, Inc
T1 sequence (O60656 26-530): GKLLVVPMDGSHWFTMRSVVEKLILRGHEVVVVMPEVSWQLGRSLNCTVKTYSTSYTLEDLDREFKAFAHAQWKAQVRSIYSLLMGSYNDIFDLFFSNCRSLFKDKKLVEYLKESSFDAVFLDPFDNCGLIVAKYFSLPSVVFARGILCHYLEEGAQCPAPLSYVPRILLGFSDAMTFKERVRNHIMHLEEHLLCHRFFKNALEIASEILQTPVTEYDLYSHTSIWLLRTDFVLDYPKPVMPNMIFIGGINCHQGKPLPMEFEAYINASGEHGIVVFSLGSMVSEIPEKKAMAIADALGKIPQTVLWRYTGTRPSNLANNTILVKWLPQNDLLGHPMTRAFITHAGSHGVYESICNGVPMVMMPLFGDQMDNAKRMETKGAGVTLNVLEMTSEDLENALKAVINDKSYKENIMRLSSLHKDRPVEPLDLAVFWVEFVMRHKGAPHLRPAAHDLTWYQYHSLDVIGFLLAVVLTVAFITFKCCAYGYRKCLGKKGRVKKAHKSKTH
Procedure: The concentrations of UGT were set at 3.4 μM by the preliminary experiments on the linearity of covalent adduct formation. The covalent adduct formation of NSAIDs-AG with organelle proteins and UGT was determined according to previous reports on NSAIDs-AG with albumin with some modifications. After a deproteinization of the reaction mixture, methanol/diethyl ether (3:1) was added to the pellet. […] The concentrations of the parent NSAIDs were measured using liquid chromatography-tandem mass spectrometry (LC-MS/MS). Aliquots of 10 μL were injected into the LC-MS/MS system. The LC-MS/MS equipment consisted of an LC system (UltiMate 3000 series, Thermo Fisher Scientific, Inc.) and TSQ Endura Triple Quadrupole Mass Spectrometer with electrospray ionization (Thermo Fisher Scientific, Inc.). Finnigan Xcalibur software (Thermo Fisher Scientific, Inc.) was used for data recording and analysis. Analysis was further performed using a reversed-phase column (COSMOSIL 5C18-MSII, 2.0 mm × 150 mm, 5 μm; Nacalai Tesque, Inc.). The column temperature was set to 40 °C, and the autosampler was maintained at 10 °C. The mobile phase (A; 30% methanol in 8.5 mM ammonium formate and 0.0075% formic acid, and B; 90% methanol in 8.5 mM ammonium formate and 0.0075% formic acid) was pumped at a flow rate of 0.2 mL/min. The initial mobile phase composition was maintained at 30% mobile phase B for 1 min, changed linearly to 90% mobile phase B from 1 to 8 min, maintained for 1 min, returned to 30% mobile phase B from 9 to 10 min, and maintained for 1 min for chromatographic column equilibrium. The MS scan was operated in positive ionization mode for DIC, MEF, ZOM, KET, and NAP, or negative ionization mode, for FLU. […] The concentrations of NSAIDs were determined from a single-point calibration in every assay for NSAIDs after confirmation of linearity between area and concentrations of NSAIDs.

UGT2B7 = target: T2, UGT2B7 (Homo sapiens, UniProt P16662); assay: Covalent adduct formation of NSAIDs-AG with UGT2B7; format: binding; conditions: 180 μM, UGT 3.4 μM, 6 h; for covalent adduct formation with UGT2B7: 37 °C
T2 construct: purchased Corning, Inc
T2 sequence (P16662 24-529): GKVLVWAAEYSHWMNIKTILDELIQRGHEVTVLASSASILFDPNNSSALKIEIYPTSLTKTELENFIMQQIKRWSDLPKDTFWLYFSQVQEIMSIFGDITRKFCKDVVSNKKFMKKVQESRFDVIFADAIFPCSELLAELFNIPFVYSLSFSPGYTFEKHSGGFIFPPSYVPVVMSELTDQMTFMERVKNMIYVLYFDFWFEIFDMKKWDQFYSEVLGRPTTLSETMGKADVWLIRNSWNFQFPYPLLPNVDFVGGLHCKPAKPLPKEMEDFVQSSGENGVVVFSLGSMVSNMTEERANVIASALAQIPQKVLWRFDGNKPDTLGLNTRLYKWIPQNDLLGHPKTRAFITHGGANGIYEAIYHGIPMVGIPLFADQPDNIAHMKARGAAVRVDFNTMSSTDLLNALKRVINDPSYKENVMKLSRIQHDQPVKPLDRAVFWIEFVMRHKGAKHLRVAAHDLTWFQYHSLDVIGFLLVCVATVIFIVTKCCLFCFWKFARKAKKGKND
Procedure: (§1) The concentrations of UGT were set at 3.4 μM by the preliminary experiments on the linearity of covalent adduct formation. The covalent adduct formation of NSAIDs-AG with organelle proteins and UGT was determined according to previous reports on NSAIDs-AG with albumin with some modifications. After a deproteinization of the reaction mixture, methanol/diethyl ether (3:1) was added to the pellet. […] The concentrations of the parent NSAIDs were measured using liquid chromatography-tandem mass spectrometry (LC-MS/MS). Aliquots of 10 μL were injected into the LC-MS/MS system. The LC-MS/MS equipment consisted of an LC system (UltiMate 3000 series, Thermo Fisher Scientific, Inc.) and TSQ Endura Triple Quadrupole Mass Spectrometer with electrospray ionization (Thermo Fisher Scientific, Inc.). Finnigan Xcalibur software (Thermo Fisher Scientific, Inc.) was used for data recording and analysis. Analysis was further performed using a reversed-phase column (COSMOSIL 5C18-MSII, 2.0 mm × 150 mm, 5 μm; Nacalai Tesque, Inc.). The column temperature was set to 40 °C, and the autosampler was maintained at 10 °C. The mobile phase (A; 30% methanol in 8.5 mM ammonium formate and 0.0075% formic acid, and B; 90% methanol in 8.5 mM ammonium formate and 0.0075% formic acid) was pumped at a flow rate of 0.2 mL/min. The initial mobile phase composition was maintained at 30% mobile phase B for 1 min, changed linearly to 90% mobile phase B from 1 to 8 min, maintained for 1 min, returned to 30% mobile phase B from 9 to 10 min, and maintained for 1 min for chromatographic column equilibrium. The MS scan was operated in positive ionization mode for DIC, MEF, ZOM, KET, and NAP, or negative ionization mode, for FLU. The conditions for electrospray ionization were set at 3500 V spray voltage for positive ionization mode and 2500 V spray voltage for negative ionization mode at 400 °C capillary temperature, and 300 °C vaporizer temperature with 40 arbitrary units of nitrogen sheath gas and 10 arbitrary units of auxiliary gas. The MS scan was operated in the positive or negative ionization mode. The selected reaction monitoring (SRM) mode was used, with argon as the collision gas at 1.5 mTorr. The mass resolution was set at 0.7 full-width at half-height (unit resolution). SRM transitions (precursor and product ions) were mass to charge ratios of (m/z) 296 > 214 for DIC (positive ionization mode), 294 > 250 for DIC (negative ionization mode), 242 > 224 for MEF, 292 > 139 for ZOM, 243 > 198 for R- and S-FLU, 255 > 209 for R- and S-KET, 231 > 185 for R- and S-NAP, and 302 > 220 for DIC-d4. The collision energies were 15 V for DIC (negative ionization mode), ZOM, MEF, FLU, KET, and NAP; 35 V for DIC (positive ionization mode); and DIC-d4. The concentrations of NSAIDs were determined from a single-point calibration in every assay for NSAIDs after confirmation of linearity between area and concentrations of NSAIDs.

[4] = parameters: method as in PMID 20606003, PMID 1673415; conditions: phosphate buffers (pH 7.4); cited from earlier work
[5] = tested on: proteins of Mic (microsomal fraction of liver homogenate); assay: Covalent adduct formation of NSAIDs-AG with proteins of microsomal fraction (Mic); conditions: for covalent adduct formation with Mic proteins: protein 1 mg/mL
UGT2B4 = target: T3, UGT2B4 (Homo sapiens, UniProt P06133); assay: Covalent adduct formation of NSAIDs-AG with UGT2B4; format: binding; conditions: R vs S diastereomer; 180 μM, UGT 3.4 μM, 6 h
T3 construct: purchased Corning, Inc
T3 sequence (P06133 24-528): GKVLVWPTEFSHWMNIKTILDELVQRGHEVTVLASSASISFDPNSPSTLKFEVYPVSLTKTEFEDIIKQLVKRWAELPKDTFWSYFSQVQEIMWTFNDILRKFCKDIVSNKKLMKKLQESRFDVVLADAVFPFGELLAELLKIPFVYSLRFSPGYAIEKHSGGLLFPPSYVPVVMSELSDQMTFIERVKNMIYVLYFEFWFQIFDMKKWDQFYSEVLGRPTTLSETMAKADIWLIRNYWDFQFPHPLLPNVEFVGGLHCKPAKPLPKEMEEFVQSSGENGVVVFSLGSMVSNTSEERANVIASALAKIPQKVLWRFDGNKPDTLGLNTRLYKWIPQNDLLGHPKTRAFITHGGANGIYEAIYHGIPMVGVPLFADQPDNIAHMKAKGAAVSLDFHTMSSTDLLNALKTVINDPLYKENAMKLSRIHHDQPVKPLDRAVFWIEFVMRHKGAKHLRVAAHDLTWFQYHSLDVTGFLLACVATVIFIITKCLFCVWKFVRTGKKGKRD
Procedure: as §1

## O=C(Cc1ccccc1Nc1c(Cl)cccc1Cl)O[C@@H]1O[C@H](C(=O)O)[C@@H](O)[C@H](O)[C@H]1O [DIC-AG]
[1]; 1 mg/mL
  covalent adducts with organelle proteins (Cyt) relative to R-KET-AG: approximately twice as high
[1]
  covalent adduct formation with Cyt proteins: formed covalent adducts
[2]; 1 mg/mL
  covalent adducts with organelle proteins (Mit) relative to R-KET-AG: approximately twice as high
[2]
  covalent adduct formation with Mit proteins: formed covalent adducts
[3]; 1 mg/mL
  covalent adducts with organelle proteins (Nuc) relative to R-KET-AG: approximately twice as high
[3]
  covalent adduct formation with Nuc proteins: formed covalent adducts
UGT1A9
  capacity to form covalent adducts with UGT1A9 relative to mefenamic acid-AG: approximately 10 times
UGT2B7
  amounts of covalent adducts with UGT2B7 compared with UGT1A9: significantly lower amounts of covalent adducts
  capacity to form covalent adducts with UGT2B7 relative to mefenamic acid-AG: approximately 10 times
  covalent adduct formation with UGT2B7: higher amounts of covalent adducts
[4]
  half-lives in buffers: relatively short half-lives
[5]; 180 μM, 1 mg/mL, 6 h
  covalent adducts with organelle proteins (Mic) relative to R-KET-AG: approximately twice as high
[5]; 180 μM, 6 h, 37 °C
  covalent adduct formation with Mic proteins: formed covalent adducts
[5]; DIC-AG 120-600 μM for 6 h, 180 μM for 1-24 h, Mic 1 mg/mL, 37 °C
  number of covalent adducts with the proteins of Mic, effect of concentration and incubation time: increased in a concentration- and time-dependent manner

## CC(C(=O)O[C@@H]1O[C@H](C(=O)O)[C@@H](O)[C@H](O)[C@H]1O)c1cccc(C(=O)c2ccccc2)c1 (stereo partly shown) [KET-AG]
[1]
  covalent adduct formation with Cyt proteins: formed covalent adducts
[2]
  covalent adduct formation with Mit proteins: formed covalent adducts
[3]
  covalent adduct formation with Nuc proteins: formed covalent adducts
UGT2B4
  covalent adduct formation with UGT2B4 compared with the other diastereomer: remarkably stereoselective formation of a covalent adduct
UGT2B7; R vs S diastereomer
  covalent adduct formation with UGT2B7 compared with the other diastereomer: remarkably stereoselective formation of a covalent adduct
[5]; 180 μM, 6 h, 37 °C
  covalent adduct formation with Mic proteins: formed covalent adducts

## COc1ccc2cc(C(C)C(=O)O[C@@H]3O[C@H](C(=O)O)[C@@H](O)[C@H](O)[C@H]3O)ccc2c1 (stereo partly shown) [NAP-AG]
UGT2B7
  covalent adduct formation with UGT2B7: higher amounts of covalent adducts
[4]
  half-lives in buffers: relatively short half-lives

Source: article PMC9104950, “Stereoselective Covalent Adduct Formation of Acyl Glucuronide Metabolite of Nonsteroidal Anti-Inflammatory Drugs with UDP-Glucuronosyltransferase” (International Journal of Molecular Sciences, 2022)
